This data set has as its system CCRIS mutagenicity, Ames/micronucleus/aberration tests. As to the kind of experiment: CCRIS mutagenicity studies.
Setting [1] is: Test System: AMES SALMONELLA TYPHIMURIUM, Strain/Indicator: TA98, Metabolic Activation: RAT, LIVER, S-9, AROCLOR 1254, Method: STANDARD PLATE.
[2] abbreviates: Test System: AMES SALMONELLA TYPHIMURIUM, Strain/Indicator: TA100, Metabolic Activation: RAT, LIVER, S-9, AROCLOR 1254, Method: STANDARD PLATE.
Where [3] appears, read: Test System: CHINESE HAMSTER V-79, Strain/Indicator: V-79/OUABAIN, Metabolic Activation: NONE, Method: STANDARD PLATE.

Calls of active or inactive are those of the source. How the calls were made is not given here.

On to `CC(C)Cc1ccc(C(C)C(=O)O)cc1` (stereo not drawn), for which the mutagenic call reads like this: (Test System: AMES SALMONELLA TYPHIMURIUM, Strain/Indicator: TA97A, Metabolic Activation: NONE, Method: STANDARD PLATE) “inactive; negative”; (Test System: AMES SALMONELLA TYPHIMURIUM, Strain/Indicator: TA97A, Metabolic Activation: RAT, LIVER, S-9, PHENOBARBITAL, Method: STANDARD PLATE) “inactive; negative”; (Test System: AMES SALMONELLA TYPHIMURIUM, Strain/Indicator: TA98, Metabolic Activation: HAMSTER, LIVER, S-9, AROCLOR 1254, Method: STANDARD PLATE) “inactive; negative”; (Test System: AMES SALMONELLA TYPHIMURIUM, Strain/Indicator: TA98, Metabolic Activation: MOUSE, LIVER, S-9, AROCLOR 1254, Method: STANDARD PLATE) “inactive; negative”; (Test System: AMES SALMONELLA TYPHIMURIUM, Strain/Indicator: TA98, Metabolic Activation: NONE, Method: STANDARD PLATE) “inactive; negative”; under setting [1], “inactive; negative”. The mutagenic call by setting is: (Test System: AMES SALMONELLA TYPHIMURIUM, Strain/Indicator: TA100, Metabolic Activation: HAMSTER, LIVER, S-9, AROCLOR 1254, Method: STANDARD PLATE) “inactive; negative”; (Test System: AMES SALMONELLA TYPHIMURIUM, Strain/Indicator: TA100, Metabolic Activation: MOUSE, LIVER, S-9, AROCLOR 1254, Method: STANDARD PLATE) “inactive; negative”; (Test System: AMES SALMONELLA TYPHIMURIUM, Strain/Indicator: TA100, Metabolic Activation: NONE, Method: STANDARD PLATE) “inactive; negative”; under setting [2], “inactive; negative”; (Test System: AMES SALMONELLA TYPHIMURIUM, Strain/Indicator: TA100, Metabolic Activation: RAT, LIVER, S-9, PHENOBARBITAL, Method: STANDARD PLATE) “inactive; negative”; (Test System: AMES SALMONELLA TYPHIMURIUM, Strain/Indicator: TA102, Metabolic Activation: NONE, Method: STANDARD PLATE) “inactive; negative”. For the same molecule, the mutagenic call was “inactive; negative” (Test System: AMES SALMONELLA TYPHIMURIUM, Strain/Indicator: TA102, Metabolic Activation: RAT, LIVER, S-9, PHENOBARBITAL, Method: STANDARD PLATE); “inactive; negative” (Test System: AMES SALMONELLA TYPHIMURIUM, Strain/Indicator: TA1535, Metabolic Activation: HAMSTER, LIVER, S-9, AROCLOR 1254, Method: STANDARD PLATE); “inactive; negative” (Test System: AMES SALMONELLA TYPHIMURIUM, Strain/Indicator: TA1535, Metabolic Activation: MOUSE, LIVER, S-9, AROCLOR 1254, Method: STANDARD PLATE); “inactive; negative” (Test System: AMES SALMONELLA TYPHIMURIUM, Strain/Indicator: TA1535, Metabolic Activation: NONE, Method: STANDARD PLATE); “inactive; negative” (Test System: AMES SALMONELLA TYPHIMURIUM, Strain/Indicator: TA1535, Metabolic Activation: RAT, LIVER, S-9, AROCLOR 1254, Method: STANDARD PLATE); “inactive; negative” (Test System: AMES SALMONELLA TYPHIMURIUM, Strain/Indicator: TA1537, Metabolic Activation: HAMSTER, LIVER, S-9, AROCLOR 1254, Method: STANDARD PLATE). Further, the mutagenic call runs as follows: (Test System: AMES SALMONELLA TYPHIMURIUM, Strain/Indicator: TA1537, Metabolic Activation: MOUSE, LIVER, S-9, AROCLOR 1254, Method: STANDARD PLATE) “inactive; negative”; (Test System: AMES SALMONELLA TYPHIMURIUM, Strain/Indicator: TA1537, Metabolic Activation: NONE, Method: STANDARD PLATE) “inactive; negative”; (Test System: AMES SALMONELLA TYPHIMURIUM, Strain/Indicator: TA1537, Metabolic Activation: RAT, LIVER, S-9, AROCLOR 1254, Method: STANDARD PLATE) “inactive; negative”; (Test System: AMES SALMONELLA TYPHIMURIUM, Strain/Indicator: TA1538, Metabolic Activation: HAMSTER, LIVER, S-9, AROCLOR 1254, Method: STANDARD PLATE) “inactive; negative”; (Test System: AMES SALMONELLA TYPHIMURIUM, Strain/Indicator: TA1538, Metabolic Activation: MOUSE, LIVER, S-9, AROCLOR 1254, Method: STANDARD PLATE) “inactive; negative”; (Test System: AMES SALMONELLA TYPHIMURIUM, Strain/Indicator: TA1538, Metabolic Activation: NONE, Method: STANDARD PLATE) “inactive; negative”. Moreover, the mutagenic call (Test System: AMES SALMONELLA TYPHIMURIUM, Strain/Indicator: TA1538, Metabolic Activation: RAT, LIVER, S-9, AROCLOR 1254, Method: STANDARD PLATE) was “inactive; negative”.

In the case of `ClC1=C(Cl)C2(Cl)C3C(Cl)C(Cl)CC3C1(Cl)C2(Cl)Cl` (stereo not drawn), the mutagenic call (Test System: AMES SALMONELLA TYPHIMURIUM, Strain/Indicator: TA98, Metabolic Activation: HAMSTER, LIVER, S-9, AROCLOR 1254 (5, 10 OR 30%), Method: PREINCUBATION) is “inactive; negative”; the mutagenic call (Test System: AMES SALMONELLA TYPHIMURIUM, Strain/Indicator: TA98, Metabolic Activation: NONE, Method: PREINCUBATION) was “inactive; negative”; the mutagenic call (Test System: AMES SALMONELLA TYPHIMURIUM, Strain/Indicator: TA98, Metabolic Activation: RAT, LIVER, S-9, AROCLOR 1254 (5, 10 OR 30%), Method: PREINCUBATION) is “inactive; negative”; the mutagenic call (Test System: AMES SALMONELLA TYPHIMURIUM, Strain/Indicator: TA100, Metabolic Activation: HAMSTER, LIVER, S-9, AROCLOR 1254 (30%), Method: PREINCUBATION) is “active; positive”; the mutagenic call (Test System: AMES SALMONELLA TYPHIMURIUM, Strain/Indicator: TA100, Metabolic Activation: NONE, Method: DESICCATOR) is “active; positive”; the mutagenic call (Test System: AMES SALMONELLA TYPHIMURIUM, Strain/Indicator: TA100, Metabolic Activation: NONE, Method: PREINCUBATION) was “inactive; negative”. For the same molecule, the mutagenic call was “active; positive” (Test System: AMES SALMONELLA TYPHIMURIUM, Strain/Indicator: TA100, Metabolic Activation: RAT, LIVER, S-9, AROCLOR 1254 (30%), Method: PREINCUBATION) and “active; positive” under setting [3].

Regarding `ClC1CO1` (stereo not drawn), the mutagenic call by setting is: (Test System: CHINESE HAMSTER V-79, Strain/Indicator: V-79/8-AZAGUANINE, Metabolic Activation: NONE, Method: STANDARD PLATE) “active; positive”; under setting [3], “active; positive”; (Test System: HUMAN H2E1 CELLS, Strain/Indicator: HPRT/6-THIOGUANINE, Metabolic Activation: NONE, Method: SUSPENSION/MICROTITER PLATE) “active; positive”.

Consider `O=c1[nH]c2c(c(=O)n1C1CCCCC1)CCC2`, for which the mutagenic call was “inactive; negative” (Test System: AMES SALMONELLA TYPHIMURIUM, Strain/Indicator: TA97, Metabolic Activation: RAT, LIVER, S-9, AROCLOR 1254, Method: STANDARD PLATE); “inactive; negative” (Test System: AMES SALMONELLA TYPHIMURIUM, Strain/Indicator: TA97, Metabolic Activation: RAT, LIVER, S-9, AROCLOR 1254 AND NADPH, Method: STANDARD PLATE); “inactive; negative” under setting [1]; “inactive; negative” (Test System: AMES SALMONELLA TYPHIMURIUM, Strain/Indicator: TA98, Metabolic Activation: RAT, LIVER, S-9, AROCLOR 1254 AND NADPH, Method: STANDARD PLATE); “inactive; negative” under setting [2]; “inactive; negative” (Test System: AMES SALMONELLA TYPHIMURIUM, Strain/Indicator: TA100, Metabolic Activation: RAT, LIVER, S-9, AROCLOR 1254 AND NADPH, Method: STANDARD PLATE). Also, the mutagenic call is “inactive; negative” (Test System: AMES SALMONELLA TYPHIMURIUM, Strain/Indicator: TA102, Metabolic Activation: RAT, LIVER, S-9, AROCLOR 1254, Method: STANDARD PLATE) and “inactive; negative” (Test System: AMES SALMONELLA TYPHIMURIUM, Strain/Indicator: TA102, Metabolic Activation: RAT, LIVER, S-9, AROCLOR 1254 AND NADPH, Method: STANDARD PLATE).

As to `COC(=O)CN(N=O)C(N)=O`, the mutagenic call was “active; positive” (Test System: E. COLI B, Strain/Indicator: H/R30R, Metabolic Activation: NONE) and “active; positive” (Test System: E. COLI B, Strain/Indicator: HS30R, Metabolic Activation: NONE).

On to `OC1C2OC2c2cccc3c2C1(O)c1ccccc1-3` (stereo not drawn), for which the mutagenic call (Test System: AMES SALMONELLA TYPHIMURIUM, Strain/Indicator: TM677, Metabolic Activation: NONE, Method: PREINCUBATION) is “inactive; negative” and the mutagenic call (Test System: AMES SALMONELLA TYPHIMURIUM, Strain/Indicator: TM677, Metabolic Activation: RAT, LIVER, POSTMITOCHONDRIAL SUPERNATANT, AROCLOR 1254, Method: PREINCUBATION) is “inactive; negative”.

Source of the values: PubChem BioAssay AID1259407 (Chemical Carcinogenesis Research Information System (CCRIS), 2018).
